The test system of one data set is HBV. As to the kind of experiment: Anti-HBV activity in HepG2.2.15 cells (HBV DNA, TaqMan PCR). The class given is cell-based. Particulars: Hepatitis B virus, 144 h, 6 days, HBV DNA in supernatant, read-out: Anti-HBV activity IC50 (HepG 2215). How it is done: Human hepatoma cells with HBV (HepG2.2.15 cells) were used for the analyzing compounds of the invention for their HBV inhibitory activities. HepG2.2.15 cells were plated in 96-well microtiter plates. Only the interior wells were utilized to reduce “edge effects” observed during cell culture; the exterior wells were filled with complete medium to help minimize sample evaporation. After 16-24 hours the confluent monolayer of HepG2.2.15 cells were washed and the medium was replaced with complete medium containing various concentrations of a test compound in triplicate (compounds tested at 6 concentrations). Lamivudine was used as the positive control, while media alone was added to cells as a negative control. Three days later the culture medium was replaced with fresh medium containing the appropriately diluted drug. Six days following the initial administration of the test compound, the cell culture supernatant was collected, treated with pronase and then used in a real-time quantitative TaqMan PCR assay. The PCR-amplified HBV DNA was detected in real-time by monitoring increases in fluorescence signals that result from the exonucleolytic degradation of a quenched fluorescent probe molecule that hybridized to the amplified HBV DNA. For each PCR amplification, a standard curve was simultaneously generated using dilutions of purified HBV DNA. Anti-HBV activity was calculated from the reduction in HBV DNA levels. CellTiter-96 kit (Promega) is employed to measure cell viability in the same assay to confirm that the inhibition was not due to cytotoxicity in HepG 2 cells.
A general note: Quantitative PCR measures a nucleic acid by following its amplification.

Data set [1] is described as follows: Cytotoxicity in MT-4 cells (MTS). The class given is cell-based. Particulars: human. The protocol: MT-4 cells was added to 96-well microtiter plates in a volume of 50 μl (1×10^5 cells/mL). The cell medium contains the test compounds with the concentrations ranging 0.01 μM-31 μM. The cells were incubated at 37° C. with 5% CO2. At assay termination (6 days), 20-25 μL of MTS reagent is added per well and the microtiter plates are then incubated for 4-6 hrs at 37° C. with 5% CO2. The plate was read spectrophotometrically to assess cell viability. The cytotoxicity was calculated based on the cell viability in comparison with the control.

A short description of data set [2]: Cytotoxicity in HepG2 cells (MTT). Particulars: human. The class given is cell-based. How it is done:
HepG2 cells were seeded on 96-well plates at a density of 1×10^4 cells/well in 100 μl DMEM supplemented with 10% FBS, 100 U/ml penicillin/streptomycin and 2 mM L-glutamine. After 20 hours of incubation at 37° C. with 5% CO2, the medium was removed and replaced with fresh medium containing test compounds with the concentrations ranging 4.7-300 μM. The cells were incubated for 24 hours at 37° C. with 5% CO2. The medium was removed and replaced with 100 μl/well MTT (Sigma) in HBSS (0.5 mg/ml). After the incubation for 2 hours on gentle shake at 37° C., 100 μl/well of MTT lysis buffer was added to the wells and plates were covered and left over night to dissolve formazan crystals. Absorbance was measured at 570-630 nm in ELISA reader. The cytotoxicity was calculated based on the cell viability in comparison with the control.

The next data set relates to HIV-1IIIB. As to the kind of experiment: Anti-HIV activity in MT-4 cells (cytopathic effect reduction). Type of data set: cell-based. Particulars: Human immunodeficiency virus 1, MT4, 144 h, 6 days post-infection. The protocol:
MT-4 cells were used for analyzing compounds of the invention for their HIV inhibitory activities. On the day preceding the assay, the cells were split 1:2 to assure they were in an exponential growth phase at the time of infection. Total cell number and percent viability determinations were performed using a hemacytometer and trypan blue exclusion. Cell viability must be greater than 95% for the cells to be utilized in the assay. The cells were re-suspended at 1×10^5 cells/mL in tissue culture medium and added to control or drug-containing 96-well microtiter plates in a volume of 50 μL. The viruses used for this assay were HIV-1IIIB. For each assay, a pre-titered aliquot of virus was removed from the freezer (−80° C.) and allowed to thaw slowly to room temperature in a biological safety cabinet. The virus was re-suspended and diluted into tissue culture medium such that the amount of virus added to each well in a volume of 50 μL was the amount determined to give between 85 to 95% cell killing at 6 days post-infection. The multiplicity of infection of these assays was approximately 0.01 and the volume added to the well of the microtiter plates was 50 μL. At assay termination (6 days post-infection), 20-25 μL of MTS reagent 3-(4,5-dimethylthiazol-2-yl)-5-(3-carboxymethoxyphenyl)-2-(4-sulfophenyl)-2H-tetrazolium (MTS; CellTiter 96 Reagent, Promega) was added per well and the microtiter plates were incubated for 4-6 hrs at 37° C., 5% CO2. Adhesive plate sealers were used in place of the lids, the sealed plate is inverted several times to mix the soluble formazan product. The plate was read spectrophotometrically at 490/650 nm with plate reader. Anti-HIV activity was calculated based on the Cytopathic Effect Reduction (%).
On the technique in general: Damage to the host cells serves as the signal in cytopathic effect assays.

Data set [3] addresses rtN236T in HBV polymerase (Hepatitis B virus genotype D subtype ayw, UniProt P03156, N571T). As to conditions: cited from earlier work.
In a further data set the target is mutation rtA181V (Hepatitis B virus genotype D subtype ayw, UniProt P03156, A516V). As to conditions: cited from earlier work.
For data set [4], the system named is mutants resistant to lamivudine. Particulars: cited from earlier work.

The source of these data is patent US20120309705A1, “NOVEL 3'-DEOXY-3'-METHYLIDENE-BETA-L-NUCLEOSIDES” (priority 2009, published 2012).

Sequence of mutation rtA181V (P03156 whole entry A516V): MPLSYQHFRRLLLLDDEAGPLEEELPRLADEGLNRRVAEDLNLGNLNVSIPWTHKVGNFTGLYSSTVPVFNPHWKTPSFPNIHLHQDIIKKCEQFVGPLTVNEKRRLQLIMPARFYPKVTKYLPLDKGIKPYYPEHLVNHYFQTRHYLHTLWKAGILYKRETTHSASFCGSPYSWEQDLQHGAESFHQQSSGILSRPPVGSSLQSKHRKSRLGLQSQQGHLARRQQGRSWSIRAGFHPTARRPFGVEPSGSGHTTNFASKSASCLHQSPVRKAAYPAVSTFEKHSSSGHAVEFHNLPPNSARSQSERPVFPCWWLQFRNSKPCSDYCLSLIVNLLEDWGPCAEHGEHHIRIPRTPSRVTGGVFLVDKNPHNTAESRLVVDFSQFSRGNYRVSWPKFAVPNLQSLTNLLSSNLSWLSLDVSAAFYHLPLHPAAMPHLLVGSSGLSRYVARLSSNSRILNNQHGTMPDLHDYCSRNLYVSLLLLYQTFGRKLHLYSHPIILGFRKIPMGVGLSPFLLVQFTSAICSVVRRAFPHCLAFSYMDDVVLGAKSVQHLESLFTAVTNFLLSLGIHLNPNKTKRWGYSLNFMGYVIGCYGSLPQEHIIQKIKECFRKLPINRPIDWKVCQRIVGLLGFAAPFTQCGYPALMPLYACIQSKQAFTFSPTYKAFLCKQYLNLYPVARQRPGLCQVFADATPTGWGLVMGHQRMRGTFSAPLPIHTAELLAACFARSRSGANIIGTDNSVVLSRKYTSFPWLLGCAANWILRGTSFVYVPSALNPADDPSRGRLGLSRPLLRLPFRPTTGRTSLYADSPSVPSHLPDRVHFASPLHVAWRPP
Sequence of rtN236T in HBV polymerase (P03156 whole entry N571T): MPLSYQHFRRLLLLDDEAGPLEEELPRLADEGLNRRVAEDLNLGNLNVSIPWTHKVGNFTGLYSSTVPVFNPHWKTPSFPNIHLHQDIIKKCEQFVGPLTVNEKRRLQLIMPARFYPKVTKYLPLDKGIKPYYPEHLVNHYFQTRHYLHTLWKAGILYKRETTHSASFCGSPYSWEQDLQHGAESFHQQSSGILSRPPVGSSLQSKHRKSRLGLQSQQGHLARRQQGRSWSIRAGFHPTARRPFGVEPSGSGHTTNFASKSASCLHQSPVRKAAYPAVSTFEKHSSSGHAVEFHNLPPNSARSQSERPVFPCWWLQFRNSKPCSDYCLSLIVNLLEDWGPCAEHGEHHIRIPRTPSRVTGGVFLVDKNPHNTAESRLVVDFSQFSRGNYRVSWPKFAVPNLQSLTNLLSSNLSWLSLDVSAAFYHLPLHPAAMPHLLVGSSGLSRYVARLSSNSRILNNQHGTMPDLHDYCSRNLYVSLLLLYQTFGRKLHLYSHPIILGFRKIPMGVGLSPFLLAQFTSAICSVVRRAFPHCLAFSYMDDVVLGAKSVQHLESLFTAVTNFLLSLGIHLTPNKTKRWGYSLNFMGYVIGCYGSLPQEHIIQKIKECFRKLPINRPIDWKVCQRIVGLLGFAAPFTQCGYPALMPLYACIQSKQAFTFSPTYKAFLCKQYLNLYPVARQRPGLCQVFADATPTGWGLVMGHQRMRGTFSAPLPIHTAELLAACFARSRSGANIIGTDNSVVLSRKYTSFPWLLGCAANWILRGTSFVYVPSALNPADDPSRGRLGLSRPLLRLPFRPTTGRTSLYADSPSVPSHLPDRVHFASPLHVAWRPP

Take `C=C1C[C@@H](n2ccc(=O)[nH]c2=O)O[C@H]1CO` [Compound 8, 1-(2,3-dideoxyl-3-methylidene-β-L-pentofuranosyl)uracil]: the figures for the IC50 in the data set on HBV and with HIV-1IIIB were over 32000 nM and over 32 µM, respectively. The CC50 (as a rule, the concentration at which the toxic effect on the cells reaches its halfway point) at 6 days in data set [1] was over 32 µM. The half-maximal cytotoxic concentration (CC50) at 24 h in data set [2] is over 32 µM.
Take `C=C1C[C@@H](n2ccc(N)nc2=O)O[C@H]1CO` [Compound 10, 1-(2,3-dideoxyl-3-methylidene-β-L-pentofuranosyl)cytosine]: the IC50 (as a rule, the concentration needed to halve the response being measured) with HBV was under 1000 nM; in the data set on HIV-1IIIB it was 1 to 32 µM. In data set [1], this compound gave a CC50 at 6 days of over 32 µM. Besides, the CC50 at 24 h in data set [2] was over 300 µM.
In data set [1], `C=C1[C@H](CO)O[C@H](n2ccc(N)nc2=O)[C@H]1O` [Compound 17, 1-(3-deoxy-3-methylidene-β-L-pentoribofuranosyl)cytosine] had a 50% cytotoxic concentration (CC50) at 6 days of over 32 µM. The CC50 at 24 h in data set [2] is over 300 µM. The same compound yielded an IC50 in the data set on HIV-1IIIB of over 32 µM.
As for `C=C1C[C@@H](n2cc(C)c(=O)[nH]c2=O)O[C@H]1CO` [Compound 26, 1-(2,3-dideoxy-3-methylidene-β-L-pentofuranosyl)thymine], the IC50 is under 1000 nM in the data set on HBV and over 32 µM with HIV-1IIIB. In data set [1], this compound gave a CC50 at 6 days of over 32 µM. The CC50 at 24 h in data set [2] was over 300 µM.
Compound `C=C1[C@H](CO)O[C@H](n2ccc(N)nc2=O)[C@@H]1O` [Compound 28, 1-(3-deoxy-3-methylidene-β-L-arabinopentofuranosyl)cytosine] had a CC50 at 6 days in data set [1] of over 32 µM. Also, in data set [2], the cytotoxic concentration (CC50) at 24 h was over 300 µM. The same compound displayed an IC50 in the data set on HIV-1IIIB of over 32 µM.
On to `C=C1[C@H](CO)O[C@H](n2ccc(N)nc2=O)[C@H]1F` [Compound 37, 1-[2-deoxy-2-(S)-fluoro-3-deoxy-3-methylidene-β-L-pentofuranosyl]cytosine], for which the CC50 at 6 days in data set [1] was over 32 µM. This compound also had a CC50 at 24 h in data set [2] of over 300 µM. This compound gave a half-inhibitory concentration (IC50) in the data set with HIV-1IIIB of over 32 µM.
The compound `C=C1[C@H](CO)O[C@H](n2ccc(N)nc2=O)[C@@H]1F` [Compound 47, 1-[2-deoxy-2-(R)-fluoro-3-deoxy-3-methylidene-β-L-pentofuranosyl]cytosine] yielded a 50% cytotoxic concentration (CC50) at 6 days in data set [1] of over 32 µM. Moreover, in data set [2], the 50% cytotoxic concentration (CC50) at 24 h was over 300 µM. In addition, the half-maximal inhibitory concentration (IC50) in the data set with HIV-1IIIB was over 32 µM.
In data set [2], `C=C1[C@H](CO)O[C@H](n2ccc(N)nc2=O)[C@H]1C` [Compound 57, 4-Amino-1-[(2S,3S,5R)-5-(hydroxymethyl)-3-methyl-4-methylenetetrahydrofuran-2-yl]pyrimidin-2(1H)-one] had a CC50 at 24 h of over 300 µM.
`C=C1C[C@@H](n2cc(F)c(N)nc2=O)O[C@H]1CO` [Compound 66, 1-(2,3-dideoxyl-3-methylidene-β-L-pentofuranosyl)-5-fluorocytosine]: the 50% inhibitory concentration (IC50) in the data set with HBV was under 1000 nM. For the same compound, the CC50 at 24 h in data set [2] is over 300 µM.
On the same counts, the results for `C=C1C[C@@H](n2cnc3c(N)ncnc32)O[C@H]1CO` [Compound 71, 9-(2,3-dideoxyl-3-methylidene-β-L-pentofuranosyl)adenine] are under 1000 nM and over 300 µM.
Turning to `C=C1C[C@@H](n2cnc3c(=O)[nH]c(N)nc32)O[C@H]1CO` [Compound 75, 9-(2,3-dideoxyl-3-methylidene-β-L-pentofuranosyl)guanine], the 50% cytotoxic concentration (CC50) at 6 days in data set [1] was over 32 µM. In addition, in the data set on HIV-1IIIB, the IC50 was over 32 µM.
Consider `Nc1ncnc2c1ncn2CCOCP(=O)(O)O` [adefovir], for which the loss of susceptibility result in data set [3] was “about 10 fold”. In addition, the activity loss result on mutation rtA181V is “about 33 fold”.
With `C=C1[C@H](CO)[C@@H](O)C[C@@H]1n1cnc2c(=O)[nH]c(N)nc21` [entecavir], the “cross-resistance of lamivudine-resistant mutants” value in data set [4] is “cross-resistance”.
As to `Cc1cn([C@@H]2C[C@@H](O)[C@H](CO)O2)c(=O)[nH]c1=O` [telbivudine], the “cross-resistance of lamivudine-resistant mutants” value in data set [4] is “cross-resistance”.
